The numbers were not newly measured in patent publication US20240062912A1, “METHODS FOR DETERMINING LIVER FUNCTION COMPRISING A MULTI-COMPARTMENTAL MODEL” (HepQuant, LLC, priority 2022, published 2024), which cites them from elsewhere.

The conditions of this data set: cited from earlier work.
Where [1] appears, read: healthy controls, previous studies.

Take `[2H]C1([2H])C[C@@]2(C)[C@H](C[C@@H](O)[C@@H]3[C@@H]2C[C@H](O)[C@]2(C)[C@@H]([C@H](C)CCC(=O)O)CC[C@@H]32)C([2H])([2H])[C@@H]1O` [d4-CA, cholic-acid-2,2,4,4-d4]: where the note is “diseased liver”, the SHUNT is recorded as 30-90%, the STAT is 0.6 to 5 µM and the “portal HFR (FLOW)” value is 20 to 2 mL/min/kg. Further, under setting [1], the average HFR (FLOW) is 1.8 L/h/kg, the “average SHUNT” value was around 20% and the “average STAT value” is listed as around 0.4.
